The values below come from US20230399411A1, “SPECIFIC ANTIBODY-DRUG-CONJUGATES (ADCS) WITH KSP INHIBITORS AND ANTI-CD123-ANTIBODIES” (Bayer Pharma Aktiengesellschaft, priority 2016, published 2023).

The test system of data set [1] is NCI-H292 cells. Put plainly: MTT assay, cytotoxicity of metabolites. Format: cell-based. Particulars: Homo sapiens, 96 h incubation. The protocol:
The analysis of the cytotoxic effects of the anti-CD123 ADCs and the corresponding metabolites was carried out with various cell lines:
NCI-H292: human mucoepidermoid lung carcinoma cells, ATCC-CRL-1848, standard medium: RPMI 1640 (Biochrom; #FG1215, stab. glutamine)+10% FCS (Biochrom; #S0415).
The cells were cultivated according to the standard method using the growth media listed under C-1. The test is carried out by detaching the cells with a solution of Accutase in PBS (Biochrom AG #L2143; in case of adherent cell), pelleting, resuspending in culture medium, counting and sowing into a 96-well culture plate with white bottom (Costar #3610) (NCI H292: 2500 cells/well; MOLM-13: 2000 cells/well; THP-1: 8000 cells/well; NB4: 7000 cells/well; KG-1: 5000 cells/well, MV-4-11: 5000 cells/well in a total volume of 100 μl). The cells were then incubated in an incubator at 37° C. and 5% carbon dioxide. After 6 h or 48 h (adherent cells) the medium was replaced. […] After 96 h, the cell proliferation was detected using the MTT assay (ATCC, Manassas, Virginia, USA, catalogue No. 30-1010K). […] The dye formed was detected at 570 nm (Infinite M1000 pro, Tecan). The measured data were used to calculate the IC50 of the growth inhibition using the DRC (dose response curve). […]
(Formazan colour is commonly taken as a measure of viable cells.)

Data set [2] in a line: Caco-2 flux assay for cell permeability. Particulars: human; for Papp B→A at 2 h: Caco-2, 2 hours. The format is in vitro ADME. The protocol: The cell permeability of a substance can be investigated by means of in vitro testing in a flux assay using Caco-2 cells [M. D. Troutman and D. R. Thakker, Pharm. Res. 20 (8), 1210-1224 (2003)]. For this purpose, the cells were cultured for 15-16 days on 24-well filter plates. For the determination of permeation, the respective test substance was applied in a HEPES buffer to the cells either apically (A) or basally (B) and incubated for 2 hours. After 0 hours and after 2 hours, samples were taken from the cis and trans compartments. The samples were separated by HPLC (Agilent 1200, Böblingen, Germany) using reverse phase columns. The HPLC system was coupled via a Turbo Ion Spray Interface to a Triple Quadropol mass spectrometer API 4000 (AB SCIEX Deutschland GmbH, Darmstadt, Germany). The permeability was evaluated on the basis of a Papp value, which was calculated using the formula published by Schwab et al. [D. Schwab et al., J. Med. Chem. 46, 1716-1725 (2003)]. […] Of critical importance for toxophores which are released intracellularly is the permeability from B to A [Papp (B-A)] and the ratio of Papp (B-A) to Papp (A-B) (efflux ratio): the lower this permeability, the slower the active and passive transport processes of the substance through the monolayer of Caco-2 cells.
(In general: Caco-2 monolayers are a common model of the intestinal barrier.)

SMILES strings stand for the structures.

`CC(C)(C)[C@H](c1cc(-c2cc(F)ccc2F)cn1Cc1ccccc1)N(CCCN)C(=O)CSC[C@H](NC(=O)CCOCCOCCOCCOCCNC(=O)CNC(=O)CC(SC[C@H](N)C(=O)O)C(=O)O)C(=O)O.O=C(O)C(F)(F)F.O=C(O)C(F)(F)F` (stereo partly drawn) [Example M20, (1R,4R,27R,33R)-1-Amino-32-(3-aminopropyl)-33-[1-benzyl-4-(2,5-difluorophenyl)-1H-pyrrol-2-yl]-34,34-dimethyl-6,9,25,31-tetraoxo-13,16,19,22-tetraoxa-3,29-dithia-7,10,26,32-tetraazapentatriacontane-1,4,27-tricarboxylic acid/trifluoroacetic acid (1:2)]: the IC50 in data set [1] turned out to be 0.149 µM. Also, the Papp B→A at 2 h in data set [2] was 0.89 nm/s.

`CC(C)(C)[C@H](c1cc(-c2cc(F)ccc2F)cn1Cc1ccccc1)N(CCCN)C(=O)CSC[C@H](NC(=O)CCOCCOCCOCCOCCNC(=O)CNC(=O)C(CC(=O)O)SC[C@H](N)C(=O)O)C(=O)O.O=C(O)C(F)(F)F.O=C(O)C(F)(F)F` (stereo partly drawn) [Example M21, (2R,24S,27R)-27-Amino-2-[({2-[(3-aminopropyl){(1R)-1-[1-benzyl-4-(2,5-difluorophenyl)-1H-pyrrol-2-yl]-2,2-dimethylpropyl}amino]-2-oxoethyl}sulphanyl)methyl]-24-(carboxymethyl)-4,20,23-trioxo-7,10,13,16-tetraoxa-25-thia-3,19,22-triazaoctacosane-1,28-dioic acid/trifluoroacetic acid (1:2)] gave a Papp B→A at 2 h in data set [2] of 0.5 nm/s. The efflux ratio at 2 h in data set [2] (Caco-2, Papp (B-A) to Papp (A-B)) is 1.5.

What is called IC50 is the concentration needed to halve the response being measured. For orientation: Papp B→A means how fast a substance crosses the layer from the basolateral side. Broadly, the efflux ratio is a quotient of directional permeabilities that is used to spot active efflux.
